In paper PMC13197777, “Distinct 2-phenylimidazo[1,2-a]pyridine derivatives that inhibit breast cancer cell proliferation identified as AHR ligands” (iScience, 2026):
Blank lines part the entries; values can stand above or below the molecule they belong to.

Columns and labels:
[1] = Parallel artificial membrane permeability assay (PAMPA); settings: for Conc. acceptor well / Conc. donor well: PAMPA after incubation
Protocol: The plates were stored at – 20 °C until ready for use. Prior to use, the plate was prewarmed at room temperature for 30 min. Donor- and acceptor solutions were prepared as 12 mM phosphate buffered saline with a pH of 6.5 (donor) respectively 7.4 (acceptor). […] Then, 300 μL of each donor solution were filled into the donor (bottom) wells of the PAMPA plate. 200 μL of the acceptor medium were loaded into each well of the pre-coated receiver plate (top). […] The compound concentrations in the donor- and acceptor wells were then determined using a Jasco 2 HPLC system equipped with a ReproSil-Pur 120 ODS-3 column (5 μm, 50 × 2 mm) and UV detection. […] The injection volume was 40 μL and the flow rate 1 mL/min. […] For X15695, two calibration curves were prepared in the presence (donor well) and absence (acceptor well) of 10% ethanol. (Figure S6). The experiments were performed in triplicates.
Where cA(t) is the compound concentration in the acceptor well in μmol⋅l^−1, cD(t) is the compound concentration in the donor well in […], VA and VD is the volume of the acceptor respectively donor solution per well in mL, A is the membrane area in cm^2 and t the incubation time in seconds (Table S3).

[2] = biological target: T1, AHR (Homo sapiens, UniProt P35869); experiment: AHR luciferase reporter assay in HAHLH cells; type: cell-based; settings: 8 h, % of maximal luciferase activity with dioxin 10 nM, read-out: EC50 AHR transactivation
T1 construct: endogenous in cells; host or cells: HAHLH (HeLa with XRE-luciferase reporter)
T1 sequence (P35869 11-848): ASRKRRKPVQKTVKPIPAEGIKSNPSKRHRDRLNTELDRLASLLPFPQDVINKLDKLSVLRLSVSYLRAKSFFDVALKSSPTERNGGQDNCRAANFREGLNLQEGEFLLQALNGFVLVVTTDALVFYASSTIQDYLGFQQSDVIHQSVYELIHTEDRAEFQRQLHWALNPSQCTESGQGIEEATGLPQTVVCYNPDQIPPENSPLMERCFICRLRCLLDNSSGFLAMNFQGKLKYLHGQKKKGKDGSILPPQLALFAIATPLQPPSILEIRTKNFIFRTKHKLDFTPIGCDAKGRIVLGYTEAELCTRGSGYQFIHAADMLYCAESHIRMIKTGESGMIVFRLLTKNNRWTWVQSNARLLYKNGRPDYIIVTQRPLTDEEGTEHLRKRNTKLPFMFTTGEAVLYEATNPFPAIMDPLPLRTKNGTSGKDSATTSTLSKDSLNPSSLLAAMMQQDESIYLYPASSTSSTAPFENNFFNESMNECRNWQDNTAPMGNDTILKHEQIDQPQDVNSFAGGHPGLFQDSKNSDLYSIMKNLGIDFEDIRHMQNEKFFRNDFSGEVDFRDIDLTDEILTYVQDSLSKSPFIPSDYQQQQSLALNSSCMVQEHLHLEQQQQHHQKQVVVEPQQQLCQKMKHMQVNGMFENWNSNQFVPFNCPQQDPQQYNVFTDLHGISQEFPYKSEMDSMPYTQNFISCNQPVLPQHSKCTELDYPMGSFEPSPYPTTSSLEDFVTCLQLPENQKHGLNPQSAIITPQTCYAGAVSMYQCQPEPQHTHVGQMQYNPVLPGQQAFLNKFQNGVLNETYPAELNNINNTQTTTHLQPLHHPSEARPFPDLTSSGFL
Excerpt: To characterize the chemical induced AHR activity, we used the already established HAHLH reporter cell lines obtained by stably expression of HeLa cells with the dioxin-responsive gene XRE(TnGCGTG)3-tata-luciferase-Luc-hygromycin plasmid.[29] The reporter HELN hERα cell line was obtained by transfecting human HeLa cells with the ERE-responsive gene ERE-βGlobin-luciferase-Luc-neomycin and the pSG5-hERα-puromycin plasmids as previously described.[59] To determine the action of the chemical on AHR and hERα activity, cells were seeded at a density of 50,000 cells per well in 96-well white opaque tissue culture plates (Greiner CellStar) in 150 μL of Dulbecco’s Modified Eagle Medium: Nutrient Mixture F-12 (DMEM/F- 12) without phenol red and 1 g/L glucose and supplemented with 5% stripped fetal bovine serum, 100 units/mL of penicillin, 100 μg/mL of streptomycin (test medium). Twenty-four hours later, chemicals to be tested were added at 4x concentration in culture medium, and cells were incubated at 37 °C for 8 h (HAhLH cells) or 24 h (HELN hERα cells). At the end of the incubation period, culture medium was replaced with test medium containing 0.3 mM luciferin and luciferase activity was measured for 2 s in intact living cells using a MicroBeta Wallac luminometer (PerkinElmer). Tests were performed in quadruplicate at 4x concentration in the same medium in at least 4 independent experiments. Results were expressed as % of the maximal luciferase activity. […] Effective concentration (ECs) for a given compound, EC50 is defined as the concentration inducing 50% of its maximal effect. The EC50 values were calculated including the adjustment for the basal activity of the cell line.

[3] = biological target: T2, ERα full-length (Homo sapiens, UniProt P03372); experiment: PolarScreen ERα Competitor Assay (fluorescence polarization); type: binding
T2 construct: 34 nM ERα full-length and 1.4 nM Fluormone EL Red were incubated; purchased ThermoFisher A15884
T2 sequence (P03372 1-595): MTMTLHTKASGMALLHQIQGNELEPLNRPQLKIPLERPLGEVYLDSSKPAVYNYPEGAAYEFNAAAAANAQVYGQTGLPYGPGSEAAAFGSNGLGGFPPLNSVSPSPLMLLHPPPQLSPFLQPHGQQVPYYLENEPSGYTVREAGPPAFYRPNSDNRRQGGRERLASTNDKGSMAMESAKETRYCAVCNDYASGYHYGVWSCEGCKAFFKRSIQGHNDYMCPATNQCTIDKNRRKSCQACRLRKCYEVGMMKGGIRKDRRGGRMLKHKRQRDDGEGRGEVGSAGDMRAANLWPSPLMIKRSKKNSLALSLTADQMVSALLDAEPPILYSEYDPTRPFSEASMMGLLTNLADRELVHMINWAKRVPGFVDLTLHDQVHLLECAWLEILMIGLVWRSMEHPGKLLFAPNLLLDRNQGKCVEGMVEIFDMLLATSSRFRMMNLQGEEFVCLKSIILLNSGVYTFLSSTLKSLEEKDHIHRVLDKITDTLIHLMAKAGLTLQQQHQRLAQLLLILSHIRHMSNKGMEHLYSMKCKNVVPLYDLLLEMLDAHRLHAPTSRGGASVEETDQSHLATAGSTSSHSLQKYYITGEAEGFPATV
Protocol: The PolarScreen Estrogen Receptor-Alpha Competitor Assay, Red (ThermoFisher, A15884) was used to determine if the X compounds bind to ERα. The assay was performed according to the manufacturer’s protocol.

[4] = biological target: T3, AHR-Hsp90-XAP2 (Homo sapiens, UniProt P35869); experiment: Thermal stability measurements (nano-DSF); type: binding; settings: 2.5 μM protein, 12.5 μM compound
T3 construct: made in house
Protocol: Thermal denaturation experiments of AHR complexes in the presence of compounds were performed using a Tycho NT.6 instrument (NanoTemper Technologies). Protein samples were prepared as previously described[67] and subsequently diluted in the buffer containing 20 mM Bis-Tris–HCl pH 7.0, 50 mM NaCl, 10 mM KCl, 10 mM MgCl2, 20 mM Na2MoO4 and 2 mM β-mercaptoethanol to a final protein concentration of 2.5 μM. Compound stock solutions were prepared at 20 mM in DMSO and added to the protein samples to yield a final concentration of 12.5 μM. For control measurements, DMSO was added to a final concentration of 5% (v/v). Following ligand or DMSO addition, the samples were gently mixed and incubated at room temperature for 10 min to allow equilibration. Thermal denaturation profiles were acquired over a temperature range of 35°C–95°C, with a heating rate of 1 °C per min. Fluorescence was monitored at emission wavelengths of 330 nm and 350 nm, and the data were analyzed as the first derivative of the fluorescence ratio (F330/F350) as a function of temperature. All experiments were performed in triplicate, and data were analyzed using the Tycho NT.6 software (NanoTemper Technologies) according to the manufacturer’s recommendations.

[5] = tested on: ERα in MCF-7 cells; experiment: Immunoblot of ERα in MCF-7 cells; type: cell-based, human; settings: MCF-7, 48 h, increasing concentrations up to 1 μM
Protocol: To determine the relative expression of proteins by Western blotting, cells were first washed with ice-cold phosphate buffered saline (PBS). Subsequently, they were lysed in ice-cold NP40 lysis buffer (1%NP-40, 50 mM Tris-HCl, pH 8.0, 150 mM NaCl, 5 mM Ethylenediaminetetraacetic acid [EDTA], 1 mM PMSF) on ice. DNA was degraded by sonification (five pulses at 50 amplitudes). Protein concentration was determined, and equal amounts of protein were separated on a 9% SDS-PAGE gel. The proteins were transferred onto nitrocellulose membrane by a standard Western blotting protocol and the membranes were incubated with the following antibodies: ERα (Santa Cruz Biotechnology, sc-8002, RRID: AB_627558) and PCNA (Santa Cruz Biotechnology, sc-56, RRID: AB_628110), followed by incubation with HRP labeled Goat anti-mouse Immunoglobulins (DAKO, P0447, RRID: AB_2617137).

[6] = tested on: ER+ MCF-7, ZR75–1, and T47D breast cancer cells; parameters: method as in PMID 37520743; settings: previously identified ref 17; cited from earlier work
[7] = tested on: MCF-7 cells; experiment: Clonogenic assay in MCF-7 cells with AHR antagonist CH223191; type: cell-based, human; settings: MCF-7, 10 nM compound, 1 μM CH223191, 14 days
Protocol: Cells were seeded at a density of 1–2×10^3 cells/well in a 6-well plate and treated with increasing concentrations of the X compounds for 14–21 days. Medium and compounds were renewed every 7 days. The experiments were terminated by fixing the cells with methanol and the colonies formed were visualized after staining with 0.5% crystal violet (w/v) in 20% methanol (v/v). Plates were photographed and the area covered by the colonies was calculated using the ColonyArea Plugin for Fiji (RRID:SCR_003070).[20]

[8] = tested on: AHR target genes CYP1A1, CYP1B1, ALDH3A1; settings: human, 16 h, 1 µM

T3 sequence (P08238 whole entry partner, one chain of several): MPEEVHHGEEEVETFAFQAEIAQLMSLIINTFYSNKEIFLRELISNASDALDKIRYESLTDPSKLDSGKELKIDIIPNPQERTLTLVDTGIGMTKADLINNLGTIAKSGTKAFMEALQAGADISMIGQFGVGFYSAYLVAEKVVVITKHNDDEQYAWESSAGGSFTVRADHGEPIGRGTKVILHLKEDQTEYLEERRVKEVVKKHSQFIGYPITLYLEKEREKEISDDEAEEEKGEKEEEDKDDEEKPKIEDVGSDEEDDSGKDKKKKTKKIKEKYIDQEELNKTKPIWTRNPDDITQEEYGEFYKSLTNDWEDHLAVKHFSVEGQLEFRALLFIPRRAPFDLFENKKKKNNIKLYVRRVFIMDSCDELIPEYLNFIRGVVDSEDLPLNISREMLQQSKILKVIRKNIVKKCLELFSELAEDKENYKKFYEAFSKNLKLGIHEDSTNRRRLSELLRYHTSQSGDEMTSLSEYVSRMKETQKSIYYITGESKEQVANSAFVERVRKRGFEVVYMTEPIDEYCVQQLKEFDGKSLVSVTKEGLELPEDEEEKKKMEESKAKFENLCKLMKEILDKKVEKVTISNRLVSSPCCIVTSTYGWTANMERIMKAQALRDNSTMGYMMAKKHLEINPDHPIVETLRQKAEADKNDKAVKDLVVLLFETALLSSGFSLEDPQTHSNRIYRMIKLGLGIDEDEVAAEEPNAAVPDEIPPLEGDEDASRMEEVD
T3 sequence (O00170 whole entry partner, one chain of several): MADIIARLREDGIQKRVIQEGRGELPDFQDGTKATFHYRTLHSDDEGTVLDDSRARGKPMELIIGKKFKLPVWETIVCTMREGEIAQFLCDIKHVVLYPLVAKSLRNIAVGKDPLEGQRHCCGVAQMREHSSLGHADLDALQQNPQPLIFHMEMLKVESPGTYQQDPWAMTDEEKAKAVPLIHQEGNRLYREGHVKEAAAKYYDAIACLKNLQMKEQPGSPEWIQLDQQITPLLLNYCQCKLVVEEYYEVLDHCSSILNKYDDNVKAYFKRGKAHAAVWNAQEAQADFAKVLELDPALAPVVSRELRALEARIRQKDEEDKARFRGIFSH

SMILES: Cn1c(=O)c2c(ncn2C)n(C)c1=O [Caffeine]
Papp at 5 h, 200 µM ([1]; PAMPA): 10.7 ×10⁻⁶ cm/s
Conc. acceptor well ([1]; replica 1): 43.91 µM
Conc. donor well ([1]; replica 1): 160.76 µM
Conc. acceptor well ([1]; replica 2): 41.44 µM
Conc. donor well ([1]; replica 2): 161.45 µM
Conc. acceptor well ([1]; replica 3): 46.38 µM
Conc. donor well ([1]; replica 3): 165.23 µM

SMILES: Clc1cc2c(cc1Cl)Oc1cc(Cl)c(Cl)cc1O2 [Dioxin, reference compound]
EC50 [2]: 1.24 nM

Conc. acceptor well ([1]; replica 1): 7.15 µM
Conc. donor well ([1]; replica 1): 112.02 µM
Conc. acceptor well ([1]; replica 2): 10.14 µM
Conc. donor well ([1]; replica 2): 117.35 µM
Conc. acceptor well ([1]; replica 3): 14.06 µM
Conc. donor well ([1]; replica 3): 120.53 µM
SMILES: O=C1NC(=O)C(c2ccccc2)(c2ccccc2)N1 [Phenytoin]

SMILES: Cc1cccn2cc(-c3ccc(F)cc3)nc12 [X19167]
displacement of the Fluormone tracer from ERα [3]: failed to displace the Fluormone
thermal stabilization of AHR (nano-DSF) [4]: promote AHR destabilization
EC50 [2]: 173 nM
ERα destabilization (immunoblot) [5]: no significant ERα destabilization
Inhibition of Proliferation [6]: No

SMILES: Fc1ccccc1-c1cn2ccccc2n1 [X19712]
displacement of the Fluormone tracer from ERα [3]: failed to displace the Fluormone
thermal stabilization of AHR (nano-DSF) [4]: promote AHR destabilization
ERα destabilization (immunoblot) [5]: no significant ERα destabilization
Inhibition of Proliferation [6]: No

SMILES: Cc1cccn2cc(-c3ccccc3F)nc12 [X19718]
displacement of the Fluormone tracer from ERα [3]: failed to displace the Fluormone
thermal stabilization of AHR (nano-DSF) [4]: promote AHR destabilization
ERα destabilization (immunoblot) [5]: no significant ERα destabilization
Inhibition of Proliferation [6]: No

SMILES: Fc1ccc(-c2cn3cc(C(F)(F)F)ccc3n2)cc1 [X20046]
inhibition of colony expansion in the presence of AHR antagonist CH223191 [7]: clearly abrogated by the AHR antagonist CH223191
ERα destabilization (immunoblot) [5]: most proficient in destabilizing ERα
expression of AHR target genes (RT-PCR) [8]: enhanced the transcriptional activity of the AHR target genes in both MCF-7 and T47D cells
Inhibition of Proliferation [6]: Yes
